# Measured values from patent publication US11246816B2, “Shampoo compositions comprising a chelant” (The Procter & Gamble Company, priority 2016, dated 2022).
# What was measured:
# [1] = Log P, n-octanol/water partition coefficient; type: physicochemical
# From the text: The term log P is the n-octanol/water partition coefficients of the material.
# The copper to be removed is inside the hair and the chelant needs to penetrate inside hair and form a strong copper-chelant complex. This copper-chelant complex needs to be water soluble and thus easily removed during the rinsing process. […] These are log P, the octanol/water partitioning coefficient, and the molecular weight of the chelant. Both are related to the ability of the chelant to penetrate into hair and also form a water soluble copper-chelant complex
# [2] = Copper content of colored hair switches after repeated shampoo wash cycles (ICP-OES); conditions: clarifying shampoo containing the chelant, 20 cycles, copper content of hair compared to same treatment with shampoo without chelant
# Procedure: The copper removing performance of the shampoo composition is determined by treating hair with clarifying shampoo containing the corresponding chelant for 20 cycles and comparing the copper content of the hair compared to the same treatment using shampoo without the chelant.
# All testing are performed on colored hair switches (see Method of Measurement of Copper on Hair below) weighing approximately 4.0 grams and having a length of approximately 6 inches. The hair switches are commercially available from IHIP (International Hair Importers). Three hair switches per shampoo composition are used. An amount of […] of shampoo is spread via a syringe onto separate hair switch. That is, the dosage is 0.10 g of shampoo per g of hair. Each application consists of adding shampoo to the hair, milking for 30 seconds followed by rinsing for 30 seconds. Shampoo is then reapplied (0.1 g/g), milked for 30 seconds and rinsed for 30 seconds. Excess water is squeezed from the hair switches and left to air dry or treated with a rinse-off conditioner and/or a leave-on treatment composition. This protocol is repeated for a number of times/cycles (as indicated in the tables below, which describe the details of hair treatments).
# The following test method is used to assess the ability of the compositions and regimens to remove copper from the hair and to inhibit copper deposition onto the hair.
# Hair switches are colored once with an oxidative hair colorant. An extra blonde shade is used for the testing. The hair switches are washed for 10 or 20 repeat wash cycles in tap water containing 7 grains per gallon water hardness (Ca/Mg) and 0.06 μg/g copper ions. Each wash cycle consists of two applications of 0.1 g/g a shampoo to the hair switches. Each application consists of adding shampoo to the hair, milking for 30 secs followed by rinsing for 30 secs. Shampoo is then reapplied 0.1 g/g, milked for 30 secs, rinsed for 30 secs and then dried in a heat box (60° C.) until dry.
# Samples of 100 mg of hair are digested overnight with 2 ml of high purity concentrated nitric acid. The digestive mixture also contains 150 μL of 100 μg/g Yttrium internal standard (Inorganic Ventures, Christianburg, Va., USA). Following digestion, samples are heated to 70-80° C. for one hour, cooled to room temperature and diluted to 15 mL with deionized water. Copper content of the hair switches is determined by inductively coupled plasma atomic spectroscopy (ICP-OES)). For each leg, 3 different samples are analyzed.
# In order to minimize the variability of the resulting copper content on hair that is related to (a) lot-to-lot viariability due to hair switches and (b) day-to-day variability of the water used during shampoo and conditioner treatments, a single lot of hair switches is used for each experimental series and a separate control experiment/treatment is run for each experimental series (see below).
# [3] = log of formation constant of complex with copper; cited from earlier work
logP [1],Compound,Copper Removing Performance from Shampoo [2] [%],Log KML Cu [3]
0.7,"O=C(O)c1ccccn1 [Picolinic Acid, picolinic acid]",50,7.9
1,"Cc1cccc(C(=O)O)n1 [6-Methyl Picolinic Acid, 6-methylpyridine-2-carboxylic acid]",35,7.1
0,"Nc1cc(C(=O)O)nc(C(=O)O)c1 [4-Aminopyridine-2,6-dicarboxylic acid, 4-aminopyridine-2,6-dicarboxylic acid]",,11.4
0.6,"O=C(O)c1cc(O)cc(C(=O)O)n1 [Chelidamic Acid, chelidamic acid]",35,12.2
0.4,"O=C(O)c1cccnc1C(=O)O [Quinolinic Acid, quinolinic acid]",50,

Compound,logP [1],Copper Removing Performance from Shampoo [2] [%],Log KML Cu [3]
"CCCCc1ccc(C(=O)O)nc1 [Fusaric Acid, fusaric acid]",2.6,,
"O=C(O)c1cccc(C(=O)O)n1 [Dipicolinic Acid, dipicolinic acid]",0.8,40,9.1
"O=C(O)c1ccc2ccccc2n1 [Quinaldic Acid, quinaldic acid]",2.1,35,5.9
